Results published in ChEMBL document CHEMBL1148710, “Alpha2-adrenoreceptors profile modulation. 3.1 (R)-(+)-m-nitrobiphenyline, a new efficient and alpha2C-subtype selective agonist” (J Med Chem, 2007).
The source made the active and inactive calls. The rule behind the calls is not given here.

Tests used:
[1] = molecular target: T1, Alpha-2A adrenergic receptor (Homo sapiens) (UniProt P08913); conditions: CHO
T1 sequence (whole entry): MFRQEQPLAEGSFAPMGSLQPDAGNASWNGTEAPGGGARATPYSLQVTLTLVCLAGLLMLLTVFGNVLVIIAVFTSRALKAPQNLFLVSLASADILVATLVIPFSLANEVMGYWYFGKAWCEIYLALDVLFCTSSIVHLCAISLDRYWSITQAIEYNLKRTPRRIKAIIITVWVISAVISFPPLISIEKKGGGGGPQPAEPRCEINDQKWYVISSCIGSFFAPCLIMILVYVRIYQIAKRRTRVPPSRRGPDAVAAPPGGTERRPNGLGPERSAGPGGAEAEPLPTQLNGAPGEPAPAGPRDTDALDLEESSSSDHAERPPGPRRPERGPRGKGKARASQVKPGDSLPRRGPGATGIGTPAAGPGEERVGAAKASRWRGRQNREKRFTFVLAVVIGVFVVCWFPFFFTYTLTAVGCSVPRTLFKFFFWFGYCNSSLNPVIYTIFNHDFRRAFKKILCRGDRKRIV
Description: Antagonistic potency at human adrenergic alpha2A receptor expressed in CHO cells assessed as forskolin-induced cAMP accumulation

[2] = molecular target: T2, Alpha-2C adrenergic receptor (Homo sapiens, UniProt P18825); assay: biochemical
T2 sequence (P18825 whole entry): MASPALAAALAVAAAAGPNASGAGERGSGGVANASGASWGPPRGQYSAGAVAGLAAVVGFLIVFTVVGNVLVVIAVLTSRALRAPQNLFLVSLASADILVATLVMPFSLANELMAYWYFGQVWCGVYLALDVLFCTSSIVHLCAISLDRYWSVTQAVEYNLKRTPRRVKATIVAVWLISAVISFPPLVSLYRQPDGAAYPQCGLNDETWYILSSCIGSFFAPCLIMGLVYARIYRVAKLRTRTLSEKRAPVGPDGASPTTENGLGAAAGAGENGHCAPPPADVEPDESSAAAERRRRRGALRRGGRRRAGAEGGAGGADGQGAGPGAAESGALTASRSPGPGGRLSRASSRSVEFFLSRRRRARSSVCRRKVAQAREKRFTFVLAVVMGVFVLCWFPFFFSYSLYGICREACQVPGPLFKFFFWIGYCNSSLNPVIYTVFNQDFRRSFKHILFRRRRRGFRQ
Description: (§2) Displacement of [3H]RX 821002 from human adrenergic Alpha-2C receptor expressed in CHO cells

[3] = molecular target: T3, Alpha-2B adrenergic receptor (Homo sapiens) (UniProt P18089); assay: Antagonistic potency at human adrenergic alpha-2B receptor expressed in CHO cells assessed as forskolin-induced cAMP accumulation; assay type: functional, cell-based
T3 sequence (whole entry): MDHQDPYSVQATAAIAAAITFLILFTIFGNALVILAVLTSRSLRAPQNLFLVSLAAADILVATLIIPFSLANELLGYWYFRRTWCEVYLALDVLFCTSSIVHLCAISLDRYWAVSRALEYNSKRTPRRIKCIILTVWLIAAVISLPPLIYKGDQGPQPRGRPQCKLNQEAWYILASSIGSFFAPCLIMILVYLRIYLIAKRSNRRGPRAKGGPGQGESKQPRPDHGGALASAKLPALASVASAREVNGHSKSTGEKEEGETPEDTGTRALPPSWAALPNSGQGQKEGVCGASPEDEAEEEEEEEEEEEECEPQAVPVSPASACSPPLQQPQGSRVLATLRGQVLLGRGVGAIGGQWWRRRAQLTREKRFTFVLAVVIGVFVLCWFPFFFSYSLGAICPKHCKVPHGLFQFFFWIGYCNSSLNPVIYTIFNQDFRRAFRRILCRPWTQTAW

[4] = molecular target: T2, Alpha-2C adrenergic receptor; assay: Displacement of [3H]RX 821002 from human adrenergic alpha-2c receptor expressed in CHO cells in presence of GppNHp/Na; assay type: cell-based
[5] = molecular target: T4, Alpha-2B adrenergic receptor (Homo sapiens, UniProt P18089); assay: Displacement of [3H]RX 821002 from human adrenergic alpha-2B receptor expressed in CHO cells; assay type: cell-based
T4 sequence (P18089 whole entry): T3 sequence (whole entry)

[6] = molecular target: T5, Alpha-2C adrenergic receptor (Homo sapiens) (UniProt P18825); assay: Intrinsic activity at human adrenergic Alpha-2C receptor expressed in CHO cells assessed as forskolin-induced cAMP accumulation relative to (-)- noradrenaline; assay type: functional, cell-based
T5 sequence (whole entry): T2 sequence (P18825 whole entry)

[7] = molecular target: T5, Alpha-2C adrenergic receptor (Homo sapiens); conditions: CHO
Description: as §2

[8] = molecular target: T2, Alpha-2C adrenergic receptor; assay: Agonistic potency at human adrenergic Alpha-2C receptor expressed in CHO cells assessed as forskolin-induced cAMP accumulation; assay type: functional, cell-based
[9] = molecular target: T6, Alpha-2A adrenergic receptor (Homo sapiens, UniProt P08913); assay: Displacement of [3H]RX 821002 from human adrenergic alpha2A receptor expressed in CHO cells; assay type: cell-based
T6 sequence (P08913 whole entry): T1 sequence (whole entry)

[10] = molecular target: T1, Alpha-2A adrenergic receptor (Homo sapiens); assay: Intrinsic activity at human adrenergic alpha-2A receptor expressed in CHO cells assessed as forskolin-induced cAMP accumulation relative to (-)-noradrenaline; assay type: functional, cell-based
[11] = molecular target: T3, Alpha-2B adrenergic receptor (Homo sapiens); assay: Intrinsic activity at human adrenergic alpha2B receptor expressed in CHO cells assessed as forskolin-induced cAMP accumulation relative to (-)- noradrenaline; assay type: functional, cell-based
[12] = molecular target: T4, Alpha-2B adrenergic receptor; assay: (§1) Agonistic potency at human adrenergic alpha-2B receptor expressed in CHO cells assessed as forskolin-induced cAMP accumulation; assay type: functional, cell-based
[13] = molecular target: T6, Alpha-2A adrenergic receptor; assay: Agonistic potency at human adrenergic alpha-2A receptor expressed in CHO cells assessed as forskolin-induced cAMP accumulation
[14] = molecular target: T3, Alpha-2B adrenergic receptor (Homo sapiens); assay: as §1; assay type: functional, cell-based

`C[C@@H](Oc1ccccc1-c1cccc([N+](=O)[O-])c1)C1=NCCN1` showed a pKb [1] of 7.11, a Ki [2] of 257 nM and a pKb [3] of 6.07. It also gave a Ki [4] of 363 nM, a Ki [5] of 741 nM and an Intrinsic activity [6] of 0.8. For the same compound, the pKiH [7] was 8.21, the pKiL [7] was 6.42 and the EC50 ([8]; read-out: EC50) was 38 nM. The EC50 ([8]; read-out: Log EC50 (converted)) was 10 nM and the Ki [9] was 81.3 nM.

`CC(Oc1ccccc1-c1cccnc1)C1=NCCN1` (racemic) showed an Intrinsic activity [10] of 0.5, an Intrinsic activity [11] of 0.5 and an Intrinsic activity [6] of 1.

`C[C@H](Oc1ccccc1-c1ccccc1)C1=NCCN1` gave an EC50 [12] of 692 nM, a Ki [2] of 302 nM and an Intrinsic activity [10] of 0.8. The Intrinsic activity [11] was 0.65, the Ki [5] was 589 nM and the EC50 [13] was 74.1 nM. The Intrinsic activity [6] was 0.9, the EC50 ([8]; read-out: Log EC50 (converted)) was 18.6 nM and the Ki [9] was 91.2 nM.

In the case of `C[C@H](Oc1ccccc1-c1cccc([N+](=O)[O-])c1)C1=NCCN1`, the pKb [1] is reported as 7.35, the Ki [2] is reported as 537 nM and the pKb [3] is reported as 5.93. It also gave a Ki [5] of 1580 nM, an Intrinsic activity [6] of 0.45 and an EC50 ([8]; read-out: Log EC50 (converted)) of 741 nM. It also gave a Ki [9] of 72.4 nM.

With `CC(Oc1ccccc1-c1cccc([N+](=O)[O-])c1)C1=NCCN1` (racemic) the Activity [14] was “inactive”, the Intrinsic activity [10] was < 0.3 and the Intrinsic activity [11] was < 0.3. The Intrinsic activity [6] was 0.6.

`C[C@@H](Oc1ccccc1-c1ccccc1)C1=NCCN1` gave an EC50 [12] of 100000 nM, a Ki [2] of 977 nM and an Intrinsic activity [10] of 0.4. It also gave an Intrinsic activity [11] of 0.4, a Ki [5] of 1260 nM and an EC50 [13] of 28800 nM. It also gave an Intrinsic activity [6] of 0.7, an EC50 ([8]; read-out: Log EC50 (converted)) of 112 nM and a Ki [9] of 186 nM.

`Cc1cccc(C(C)c2c[nH]cn2)c1C` (single isomer, unassigned) [DEXMEDETOMIDINE] was tested, and the Ki [4] was 30.9 nM, the pKiH [7] was 10 and the pKiL [7] was 8.26.

`CC(Oc1ccccc1-c1cccc(F)c1)C1=NCCN1` (racemic) was tested, and the Activity [14] was “inactive”, the Intrinsic activity [10] was 0.58 and the Intrinsic activity [11] was < 0.3. It also gave an Intrinsic activity [6] of 1.15.

For `CC(Oc1ccccc1-c1cccc(O)c1)C1=NCCN1` (racemic), the Intrinsic activity [10] was < 0.3, the Intrinsic activity [11] was 0.5 and the Intrinsic activity [6] was 1.15.

For `CC(Oc1ccccc1-c1ccccc1)C1=NCCN1` (racemic), the Intrinsic activity [10] was 0.7, the Intrinsic activity [11] was 0.5 and the Intrinsic activity [6] was 0.8.
